Data published in BindingDB's records for doi:10.1021/acs.biochem.6b00486 (Academia Sinica, 2016).

How the values were obtained:
[1] = target: T1, IspB protein (Escherichia coli (strain 55989 / EAEC), UniProt B7LHQ0); assay: Fluorescent Assay
[2] = target: T1, IspB protein; assay: Radioactive Assay

T1 sequence (B7LHQ0 whole entry): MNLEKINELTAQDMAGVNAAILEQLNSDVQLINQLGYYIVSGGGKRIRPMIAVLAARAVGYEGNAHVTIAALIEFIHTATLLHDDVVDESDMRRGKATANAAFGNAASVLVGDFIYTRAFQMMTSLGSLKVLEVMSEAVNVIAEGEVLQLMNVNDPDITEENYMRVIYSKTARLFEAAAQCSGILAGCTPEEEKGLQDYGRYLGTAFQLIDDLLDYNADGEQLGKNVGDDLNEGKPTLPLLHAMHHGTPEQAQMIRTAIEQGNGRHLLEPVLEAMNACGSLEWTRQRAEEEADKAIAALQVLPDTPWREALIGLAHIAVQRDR

IC50 [1]: 220 nM | IC50 [2]: 290 nM
SMILES: O=P(O)(O)C(O)(Cn1ccnc1)P(=O)(O)O
